Assay results reported in PubChem BioAssay AID449750 (Broad Institute, 2010).
Calls of active or inactive are those of the source. No rule for the calls is given here.

Experiment: non-covalent RecA intein splicing inhibitors, dose response, biochemical, cell-free, fluorescence, secondary screen (AID 449750)
Work on Cc1cc(C)c(S(=O)(=O)Nc2cc(SCC(=O)O)c(O)c3ccccc23)cc1C yielded an AC50 of 2.58 µM. In the case of CC1=C(C)/C(=N\OC(=O)/C=C/c2ccccc2)C=CC1=O, the AC50 is reported as > 38 µM (inactive). With CC(Nc1c[nH]c(=O)[nH]c1=O)c1ccccc1 (centres undefined) the AC50 was > 38 µM (inactive). In the case of CCOc1cc(/C=N\NC(=O)OC(C)(C)C)ccc1OC(=O)c1ccco1, the AC50 is reported as > 38 µM (inactive). With O=c1[nH]c2ccccc2n2c(-c3ccccc3)nnc12 the AC50 was 22.5 µM. With COc1ccc(Br)cc1[C@H]1[C@@H]2C=CCC[C@@]2(C)C(=O)N1Cc1ccccc1 the AC50 was > 38 µM (inactive). CC1CCCCC1NC(=O)NC(=O)CCl (centres undefined) gave an AC50 of 39.8 µM. For O=C1C(Cl)=C(N2CCOCC2)C(=O)N1c1ccccc1Cl, the AC50 was > 38 µM (inactive). CC1=NN(c2ccccc2)C(=O)C1/C=C1\C(=O)NC(=O)N(c2ccc(C)c(C)c2)C1=O (centres undefined) gave an AC50 of 26.1 µM. In the case of N#Cc1nccnc1S(=O)(=O)c1cccs1, the AC50 is reported as > 38 µM (inactive). With CC(C)=CCC1=C(OCC(=O)O)C(=O)c2ccccc2C1=O the AC50 was 10.3 µM. For COc1ccc(-c2nnc(Sc3nc4ccccc4o3)c3ccccc23)cc1, the AC50 was 18.8 µM. For CC(C)(C)c1ccc(/C=C(\c2nc3ccccc3[nH]2)S(=O)(=O)c2ccccc2)cc1, the AC50 was 39.1 µM. In the case of Cc1[nH]nc2c1C1(CCN(C(=O)c3ccccc3)CC1)C(C#N)=C(N)O2, the AC50 is reported as > 38 µM (inactive). Cc1ccc(NC(=O)COc2cccc(/C=C3\SC(=S)N(CCC(=O)O)C3=O)c2)cc1Cl gave an AC50 of 10.2 µM. Compound CCOc1cc(/C=C2/C(=O)N(c3ccccc3)N=C2C)ccc1OC(=O)c1ccco1 has an AC50 of 3.17 µM. In the case of CCOC(=O)c1nnc(-c2cccs2)nc1Oc1ccc(Cl)cc1, the AC50 is reported as > 38 µM (inactive). For O=[N+]([O-])C(/C=C(\Cl)[N+](=O)[O-])=C1N(Cc2ccc(Cl)nc2)CCN1Cc1ccc(Cl)nc1, the AC50 was > 38 µM (inactive). CC1=C(CC(=O)c2ccccc2)C(=O)c2ccccc2C1=O gave an AC50 of 16.6 µM. For COc1cc(Br)c(C2C(C#N)=C(N)Oc3n[nH]c(-c4cccnc4)c32)cc1OC (centres undefined), the AC50 was 34.5 µM. In the case of CC1=C(C)CC2(SC1)C(=O)N(c1ccccc1)N=C2N (centres undefined), the AC50 is reported as > 38 µM (inactive). In the case of Nc1nn2c(-c3ccccc3)cc(=O)[nH]c2c1N=Nc1ccc(O)cc1, the AC50 is reported as > 38 µM (inactive). With COc1cc(Br)c(C(=O)c2nccc3cc(OC)c(OC)cc23)cc1OC the AC50 was 6.24 µM. For Nc1ccccc1S(=O)(=O)NC1=NCCCCC1, the AC50 was > 38 µM (inactive). With CCOC(=O)c1cnc(N)nc1C(F)(F)F the AC50 was > 38 µM (inactive). For O=C(CCl)NCc1c(Cl)cccc1-n1cccc1, the AC50 was 7.58 µM. With CC(=O)N(C1CC(C)C(C#N)(C#N)C1(C#N)C#N)N(C)C (centres undefined) the AC50 was > 38 µM (inactive). In the case of COc1cccc(CN2CCN(Cc3ccc(C#CC(C)(C)O)s3)CC2CCO)c1 (centres undefined), the AC50 is reported as > 38 µM (inactive). Compound O=C1CCCC(O)=C1C(C#Cc1ccccc1)C1=C(O)CCCC1=O has an AC50 of 14.7 µM. With CN(CCc1cnn(C)c1)C(=O)C1CCC(=O)N(CC2CCCCC2)C1 (centres undefined) the AC50 was > 38 µM (inactive). For CCc1[nH]nc2c1C(c1ccsc1)C(C#N)=C(N)O2 (centres undefined), the AC50 was > 38 µM (inactive). For CCN(CCN(C)C)C(=O)c1ccc2c(c1NCCO)C(=O)c1ccccc1C2=O, the AC50 was > 38 µM (inactive). CCOC(=O)c1c(C)[nH]c2c1-c1ccccc1C(=O)C2=O gave an AC50 of 5.39 µM. For Cc1noc(C)c1COC(=O)Cc1ccc(Br)cc1, the AC50 was > 38 µM (inactive). COc1ccc(OC)c(C(c2c(C)[nH][nH]c2=O)c2c(C)[nH][nH]c2=O)c1 gave an AC50 of 13.5 µM. In the case of Cc1ccc(NC2=C(Cl)C(=O)OC2OC(=O)c2ccco2)cc1C (centres undefined), the AC50 is reported as > 38 µM (inactive). For CCOC(=O)c1nn(-c2ccc(OC)cc2)c(=O)c2c(N)scc12, the AC50 was > 38 µM (inactive). O=C1C(Cl)=C(NS(=O)(=O)c2ccc([N+](=O)[O-])cc2)C(=O)c2ccccc21 gave an AC50 of 10.3 µM. For Cn1c2c(c(=O)n(C)c1=O)[C@@]1(C(=O)Nc3ccccc31)C(C#N)=C(N)O2, the AC50 was > 38 µM (inactive). With CCCNC(=O)c1nnsc1S(=O)c1ccc(Cl)cc1 (centres undefined) the AC50 was 32.9 µM. Compound CC(=O)Oc1cc2c(cc1Cl)C1(CC(c3ccccc3Cl)O2)CC(C)(C)NC(=S)N1 (centres undefined) has an AC50 of 23.8 µM. With Cc1cc(Br)c2c(c1)/C(=C/C(=O)c1cccs1)C(=O)N2 the AC50 was > 38 µM (inactive). In the case of Cc1[nH]n(C(C)(C)C)c(=O)c1Sc1ccccc1, the AC50 is reported as > 38 µM (inactive). With COc1ccc(-c2oc(NC(=O)CCl)c(C#N)c2-c2ccc(OC)cc2)cc1 the AC50 was 1.55 µM. In the case of N#CC1=C(N)Oc2n[nH]c(-c3ccc(F)cc3)c2C1c1cccc(OC(=O)N2CCOCC2)c1 (centres undefined), the AC50 is reported as 26.2 µM. Work on CCOC(=O)c1c(NC(=O)CCl)sc(CN(C)C)c1-c1ccccc1 yielded an AC50 of 20.4 µM. Cc1ccc(S(=O)(=O)/N=C2\C=C(Nc3cccc(C(=O)O)c3)C(=O)c3ccccc32)cc1 gave an AC50 of 0.412 µM. In the case of Cc1cc2nc3ccc(=[N+](C)C)cc-3sc2cc1N, the AC50 is reported as 13.1 µM. CCOC(=O)c1c(NC(=O)CCl)sc(C(=O)N(CC)CC)c1C gave an AC50 of 4.22 µM. In the case of COC(=O)c1ccc(NC(=O)c2nc(S(=O)(=O)Cc3cccc(C)c3)ncc2Cl)cc1, the AC50 is reported as 17.1 µM. For CCCn1c(=O)[nH]c(=O)c2c1nc(-c1ccc(OC(F)F)c(OC)c1)n2CCOC, the AC50 was > 38 µM (inactive). With CC(C)(C)c1cnnn1-c1ccc(C(=O)CCl)cc1 the AC50 was > 38 µM (inactive). Compound Clc1ccc2nnnc(-c3ccccc3)c2c1 has an AC50 of 9.57 µM. CC1(CC(=O)N/N=C/c2ccc(OCc3ccc(Cl)cc3Cl)cc2)OCCCO1 showed an AC50 of 11.2 µM.
